# US6339045B1, “N-(unsubstituted or substituted)-4-substituted-6-(unsubstituted or substituted)phenoxy-2-pyridinecarboxamides or thiocarboxamides, processes for producing the same, and herbicides” (Kureha Kagaku Kogyo Kabushiki Kaisha, priority 1995, dated 2002)
# What was measured:
# Test in all cases: Herbicidal effect by foliage and soil treatment
# Type in all cases: in vivo
# Conditions in all cases: 10 g ai/10a, evaluated after 14 days
# [1] = test system: sicklepod (Cassia obtusifolia)
# Summary of the method: (§1)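 Greenhouse pot test at 19–25 °C: spray of aqueous Tween 20 formulation onto foliage and soil of seedlings at cotyledonal–bifoliate stage, dose per area predetermined. Scoring on a rating scale after 14 days versus untreated.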
# [2] = test system: common chickweed (Stellaria media)
# Summary of the method: as §1
# [3] = test system: ivyleafspeedwell (Veronica hederaefolia)
# Summary of the method: as §1
# [4] = test system: redroot pigweed (Amaranthus retroflexus)
# Summary of the method: as §1
# [5] = test system: common blackjack (Bidens pilosa)
# Summary of the method: as §1
# [6] = test system: kediock (Sinapis arvensis)
# Summary of the method: as §1
# [7] = test system: cleavers (Galium aparine)
# Summary of the method: as §1
# [8] = test system: black nightshade (Solanum nigrum)
# Summary of the method: as §1
# [9] = test system: velvetleaf (Abutilon theophrasti)
# Summary of the method: as §1
# [10] = test system: wild chamomile (Matricaria chamomilla)
# Summary of the method: as §1
# [11] = test system: field bindweed (Convolvulus arvensis)
# Summary of the method: as §1
SMILES,"herbicidal activity rating, CO (Cassia obtusifolia) [1]","herbicidal activity rating, SM (Stellaria media) [2]","herbicidal activity rating, VH (Veronica hederaefolia) [3]","herbicidal activity rating, AR (Amaranthus retroflexus) [4]","herbicidal activity rating, BP (Bidens pilosa) [5]","herbicidal activity rating, SA (Sinapis arvensis) [6]","herbicidal activity rating, GA (Galium aparine) [7]","herbicidal activity rating, SN (Solanum nigrum) [8]","herbicidal activity rating, AT (Abutilon theophrasti) [9]","herbicidal activity rating, MC (Matricaria chamomilla) [10]","herbicidal activity rating, CA (Convolvulus arvensis) [11]"
COCCNC(=O)c1cc(OC)cc(Oc2cccc(C(F)(F)F)c2)n1 [Compound I-61],5 (percentage of weeds killed was not less than 80%),5 (percentage of weeds killed was not less than 80%),5 (percentage of weeds killed was not less than 80%),5 (percentage of weeds killed was not less than 80%),2 (percentage of weeds killed was not less than 20% and less than 40%),5 (percentage of weeds killed was not less than 80%),5 (percentage of weeds killed was not less than 80%),5 (percentage of weeds killed was not less than 80%),4 (percentage of weeds killed was not less than 60% and less than 80%),5 (percentage of weeds killed was not less than 80%),3 (percentage of weeds killed was not less than 40% and less than 60%)
CCC(C)NC(=O)c1cc(OC)cc(Oc2cccc(C(F)(F)F)c2)n1 (stereo not shown) [Compound I-73],5 (percentage of weeds killed was not less than 80%),5 (percentage of weeds killed was not less than 80%),5 (percentage of weeds killed was not less than 80%),5 (percentage of weeds killed was not less than 80%),4 (percentage of weeds killed was not less than 60% and less than 80%),5 (percentage of weeds killed was not less than 80%),5 (percentage of weeds killed was not less than 80%),5 (percentage of weeds killed was not less than 80%),5 (percentage of weeds killed was not less than 80%),4 (percentage of weeds killed was not less than 60% and less than 80%),5 (percentage of weeds killed was not less than 80%)
"CC(C)NC(=O)c1cc(N(C)C)cc(Oc2cccc(C(F)(F)F)c2)n1 [Compound I-57, N-(i-propyl)-4-dimethylamino-6-{3-(trifluoromethyl)phenoxy}-2-pyridine carboxamide]",5 (percentage of weeds killed was not less than 80%),4 (percentage of weeds killed was not less than 60% and less than 80%),5 (percentage of weeds killed was not less than 80%),5 (percentage of weeds killed was not less than 80%),5 (percentage of weeds killed was not less than 80%),5 (percentage of weeds killed was not less than 80%),5 (percentage of weeds killed was not less than 80%),5 (percentage of weeds killed was not less than 80%),4 (percentage of weeds killed was not less than 60% and less than 80%),3 (percentage of weeds killed was not less than 40% and less than 60%),4 (percentage of weeds killed was not less than 60% and less than 80%)
"CCSCCNC(=O)c1cc(OC)cc(Oc2cccc(C(F)(F)F)c2)n1 [Compound I-67, N-{2-(ethylmercapto)ethyl}-4-methoxy-6-{3-(trifluoromethyl)phenoxy}-2-pyridine carboxamide]",5 (percentage of weeds killed was not less than 80%),4 (percentage of weeds killed was not less than 60% and less than 80%),5 (percentage of weeds killed was not less than 80%),5 (percentage of weeds killed was not less than 80%),3 (percentage of weeds killed was not less than 40% and less than 60%),5 (percentage of weeds killed was not less than 80%),5 (percentage of weeds killed was not less than 80%),5 (percentage of weeds killed was not less than 80%),4 (percentage of weeds killed was not less than 60% and less than 80%),3 (percentage of weeds killed was not less than 40% and less than 60%),5 (percentage of weeds killed was not less than 80%)
COc1cc(Oc2cccc(C(F)(F)F)c2)nc(C(=O)NCCCSC)c1 [Compound I-76],5 (percentage of weeds killed was not less than 80%),4 (percentage of weeds killed was not less than 60% and less than 80%),5 (percentage of weeds killed was not less than 80%),5 (percentage of weeds killed was not less than 80%),4 (percentage of weeds killed was not less than 60% and less than 80%),5 (percentage of weeds killed was not less than 80%),5 (percentage of weeds killed was not less than 80%),5 (percentage of weeds killed was not less than 80%),3 (percentage of weeds killed was not less than 40% and less than 60%),5 (percentage of weeds killed was not less than 80%),3 (percentage of weeds killed was not less than 40% and less than 60%)
COc1cc(Oc2cccc(C(F)(F)F)c2)nc(C(=O)NCCCl)c1 [Compound I-35],5 (percentage of weeds killed was not less than 80%),5 (percentage of weeds killed was not less than 80%),5 (percentage of weeds killed was not less than 80%),5 (percentage of weeds killed was not less than 80%),5 (percentage of weeds killed was not less than 80%),5 (percentage of weeds killed was not less than 80%),5 (percentage of weeds killed was not less than 80%),5 (percentage of weeds killed was not less than 80%),5 (percentage of weeds killed was not less than 80%),5 (percentage of weeds killed was not less than 80%),5 (percentage of weeds killed was not less than 80%)
COc1cc(Oc2cccc(C(F)(F)F)c2)nc(C(=O)NCC(F)(F)C(F)(F)C(F)(F)F)c1 [Compound I-80],5 (percentage of weeds killed was not less than 80%),5 (percentage of weeds killed was not less than 80%),5 (percentage of weeds killed was not less than 80%),5 (percentage of weeds killed was not less than 80%),5 (percentage of weeds killed was not less than 80%),5 (percentage of weeds killed was not less than 80%),5 (percentage of weeds killed was not less than 80%),5 (percentage of weeds killed was not less than 80%),5 (percentage of weeds killed was not less than 80%),5 (percentage of weeds killed was not less than 80%),5 (percentage of weeds killed was not less than 80%)
COc1cc(Oc2cccc(OC(F)(F)F)c2)nc(C(=O)NC(C)C)c1 [Compound I-39],5 (percentage of weeds killed was not less than 80%),5 (percentage of weeds killed was not less than 80%),5 (percentage of weeds killed was not less than 80%),5 (percentage of weeds killed was not less than 80%),3 (percentage of weeds killed was not less than 40% and less than 60%),5 (percentage of weeds killed was not less than 80%),5 (percentage of weeds killed was not less than 80%),5 (percentage of weeds killed was not less than 80%),5 (percentage of weeds killed was not less than 80%),4 (percentage of weeds killed was not less than 60% and less than 80%),5 (percentage of weeds killed was not less than 80%)
